ChEMBL document CHEMBL1127148, “The squalestatins: novel inhibitors of squalene synthase. The optimal C1 chain-length requirements” (Bioorg Med Chem Lett, 1993)

target: T1, Squalene synthase (Rattus norvegicus, UniProt Q02769); assay: Tested in vitro for the inhibition of Squalene synthase activity, measured using juvenile male rat liver microsomes; parameters: species or system Microsome
T1 sequence (Q02769 whole entry): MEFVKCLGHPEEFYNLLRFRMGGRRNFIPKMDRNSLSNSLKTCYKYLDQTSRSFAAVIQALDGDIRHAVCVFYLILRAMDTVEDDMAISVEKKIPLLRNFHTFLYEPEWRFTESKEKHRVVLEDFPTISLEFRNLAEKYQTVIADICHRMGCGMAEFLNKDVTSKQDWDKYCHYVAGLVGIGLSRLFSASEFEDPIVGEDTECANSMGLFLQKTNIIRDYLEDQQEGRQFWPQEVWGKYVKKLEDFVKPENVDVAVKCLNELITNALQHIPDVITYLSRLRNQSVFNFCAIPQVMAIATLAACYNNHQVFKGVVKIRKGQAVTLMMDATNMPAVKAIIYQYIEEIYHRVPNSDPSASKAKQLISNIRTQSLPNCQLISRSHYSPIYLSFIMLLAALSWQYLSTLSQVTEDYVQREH

SMILES | IC50
C=C(CC[C@]12O[C@H](C(=O)O)[C@@](O)(C(=O)O)[C@](C(=O)O)(O1)[C@H](OC(=O)CC[C@@H](C)C[C@@H](C)CC)[C@H]2O)[C@H](O)[C@@H](C)Cc1ccccc1 | 2 nM
CC[C@H](C)C[C@H](C)CCC(=O)O[C@@H]1[C@@H](O)[C@@]2(CCC(C)C(=O)[C@@H](C)Cc3ccccc3)O[C@H](C(=O)O)[C@@](O)(C(=O)O)[C@]1(C(=O)O)O2 (single isomer, unassigned; isomer 2) | 130 nM
CC[C@H](C)C[C@H](C)CCC(=O)O[C@@H]1[C@@H](O)[C@@]2(CCC(C)C(=O)[C@@H](C)Cc3ccccc3)O[C@H](C(=O)O)[C@@](O)(C(=O)O)[C@]1(C(=O)O)O2 (stereo in doubt) | 16 nM
CC[C@H](C)C[C@H](C)CCC(=O)O[C@@H]1[C@@H](O)[C@@]2(CC/C(C)=C/[C@@H](C)Cc3ccccc3)O[C@H](C(=O)O)[C@@](O)(C(=O)O)[C@]1(C(=O)O)O2 | 63 nM

The remaining lines, values ahead:

IC50 | SMILES
17 nM | CC[C@H](C)C[C@H](C)CCC(=O)O[C@@H]1[C@@H](O)[C@@]2(C/C=C(\C)[C@H](O)[C@@H](C)Cc3ccccc3)O[C@H](C(=O)O)[C@@](O)(C(=O)O)[C@]1(C(=O)O)O2
5 nM | CC[C@H](C)C[C@H](C)CCC(=O)O[C@@H]1[C@@H](O)[C@@]2(CCC(=O)[C@H](O)[C@@H](C)Cc3ccccc3)O[C@H](C(=O)O)[C@@](O)(C(=O)O)[C@]1(C(=O)O)O2
4 nM | CC[C@H](C)C[C@H](C)CCC(=O)O[C@@H]1[C@@H](O)[C@@]2(CCC(O)[C@H](O)[C@@H](C)Cc3ccccc3)O[C@H](C(=O)O)[C@@](O)(C(=O)O)[C@]1(C(=O)O)O2 (stereo partly drawn)

target: T1, Squalene synthase; assay: Inhibition of Squalene synthase activity in juvenile male rat liver microsomes; parameters: species or system Microsome

SMILES | IC50
C=C(CC[C@]12O[C@H](C(=O)O)[C@@](O)(C(=O)O)[C@](C(=O)O)(O1)[C@H](OC(=O)/C=C/[C@@H](C)C[C@@H](C)CC)[C@H]2O)[C@H](O)[C@@H](C)Cc1ccccc1 | 5 nM
CC[C@H](C)C[C@H](C)CCC(=O)O[C@@H]1[C@@H](O)[C@@]2(CCCC(=O)CCCc3ccccc3)O[C@H](C(=O)O)[C@@](O)(C(=O)O)[C@]1(C(=O)O)O2 | 152 nM

Other lines, results leading:

IC50 | SMILES
> 500 nM | CC[C@H](C)C[C@H](C)CCC(=O)O[C@@H]1[C@@H](O)[C@@]2(CCO)O[C@H](C(=O)O)[C@@](O)(C(=O)O)[C@]1(C(=O)O)O2
48 nM | CC[C@H](C)C[C@H](C)CCC(=O)O[C@@H]1[C@@H](O)[C@@]2(CCC(C)C(=O)CCc3ccccc3)O[C@H](C(=O)O)[C@@](O)(C(=O)O)[C@]1(C(=O)O)O2 (stereo partly drawn)
29 nM | CC[C@H](C)C[C@H](C)CCC(=O)O[C@@H]1[C@@H](O)[C@@]2(CCCC(=O)C(C)Cc3ccccc3)O[C@H](C(=O)O)[C@@](O)(C(=O)O)[C@]1(C(=O)O)O2 (stereo partly drawn)
> 500 nM | CC[C@H](C)C[C@H](C)CCC(=O)O[C@@H]1[C@@H](O)[C@@]2(CCCC(=O)Cc3ccccc3)O[C@H](C(=O)O)[C@@](O)(C(=O)O)[C@]1(C(=O)O)O2
56 nM | CC[C@H](C)C[C@H](C)CCC(=O)O[C@@H]1[C@@H](O)[C@@]2(CCCC(=O)CCc3ccccc3)O[C@H](C(=O)O)[C@@](O)(C(=O)O)[C@]1(C(=O)O)O2
470 nM | CC[C@H](C)C[C@H](C)CCC(=O)O[C@@H]1[C@@H](O)[C@@]2(CCC(C)=O)O[C@H](C(=O)O)[C@@](O)(C(=O)O)[C@]1(C(=O)O)O2
> 500 nM | CCCC(=O)CCC[C@]12O[C@H](C(=O)O)[C@@](O)(C(=O)O)[C@](C(=O)O)(O1)[C@H](OC(=O)CC[C@@H](C)C[C@@H](C)CC)[C@H]2O
> 500 nM | CCCCCCC(=O)CCC[C@]12O[C@H](C(=O)O)[C@@](O)(C(=O)O)[C@](C(=O)O)(O1)[C@H](OC(=O)CC[C@@H](C)C[C@@H](C)CC)[C@H]2O

tested on: Rattus norvegicus; assay: Tested for daily dose at which compound shows 50% reduction in serum cholesterol levels after oral administration; type: functional

SMILES | Dose
C=C(CC[C@]12O[C@H](C(=O)O)[C@@](O)(C(=O)O)[C@](C(=O)O)(O1)[C@H](OC(=O)/C=C/[C@@H](C)C[C@@H](C)CC)[C@H]2O)[C@H](OC(C)=O)[C@@H](C)Cc1ccccc1 | 10 mg/kg
